Non-standard residues stand in square brackets, D forms with d. Residues, ends and D or L forms follow the SMILES beside them. *: point of attachment. Octanoyl = CCCCCCCC(=O)*; Bz = O=C(c1ccccc1)*
Tests used:
CT26.CL25 cells = experiment: Cell viability readout (CellTiter-Glo) with bacteria-free media; format: cell-based, mouse; conditions: 72 h
Description: Example 100: Cell-Based Assay of Bacterial Enzymes with Mammalian CT26.CL25 Mouse Colorectal Carcinoma Viability Readout
Bacteria-free media was incubated with the indicated test compound. ((R)—N1-(2-(methylamino)ethyl)-2-octanamidosuccinamide, a recognition element-linker conjugate lacking a payload, was serially diluted 1:1000 in DMSO and […] in medium+10% FBS to give a final concentration of 10 nM. Compound 35, Compound 76, Compound 77, Compound 78, Compound 79, and SN-38 were serially diluted 1:1000 in DMSO and 1:1000 in medium to give a final concentration of 10 nM, and then the bacteria-free supernatants were tested for their ability to kill mammalian cells. As an additional control, the test compound will also be incubated with bacteria-free media. The above steps can also be performed in the presence of E. coli (CFT073 ATCC 700928, Nissle 1917, or BL21 (DE3)) to effect cleavage of the conjugates of the application.
On Day 1, CT26.CL25 cells (15,000 cells/well) were seeded in triplicate into a 24 well plate and incubated overnight in 100 μL of complete medium. The reactions (bacteria or media blank) was pelleted by centrifugation, and then the supernatant was passed through a 0.2 μm sterile filter to remove residual bacteria.
On Day 2, 300 μL of a 10 nM solution of each compound in media were applied to separate wells of CT26.CL25 cells as prepared on Day 1. The cells were incubated at 37° C. for 72 h. After this point, viability was assessed using a CellTiter-Glo kit.
Binning of the compounds was achieved by measuring cell growth or arrest (e.g. remaining cells are >90% viable, >80% viable, >70% viable, >60% viable, >50% viable, >40% viable, >30% viable, >20% viable, or >10% viable).

[1] = In vitro Colonic Material Stability Assay; format: in vitro ADME; conditions: for Assay 3 (% Remaining at 24 h): colonic material slurry, anaerobic, 1 or 10 μM
How it was run: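 Compounds were added at 1 or 10 μM final to colonic material slurry (6.7 μL of 15% w/v slurry per 1 mL YCFAC or similar medium). Samples taken at 0–2880 min were acetonitrile-quenched and the remaining compound quantified by LC/MS.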

WT ClbP = experiment: Assay with purified ClbP protein (LCMS); format: biochemical, E. coli; conditions: 20 μM WT ClbP, room temperature, 24 h
Description: This example is representative of the method described in Example 91 the soluble peptidase domain (amino acids 38 to 375) of ClbP or the catalytically inert mutant S95A was cloned into pET28a using previously defined boundaries as a starting point (Brotherton, J. Am. Chem. Soc., 135:3359-3362, 2013).
WT ClbP or S95A ClbP was isolated as an N-terminally tagged HiS6-SUMO1-fusion protein from […] using E. coli BL21(DE3)RIPL to express the protein. The cells were lysed in 30 mM Tris pH 8.0, 300 mM NaCl, 10% (v/v) glycerol, benzonase (Sigma-Millipore), lysozyme, B-per (ThermoFisher), and Y-per (ThermoFisher). The lysate was clarified via centrifugation (13,000 g, 20 min), and the supernatant was incubated with HiBond Ni-NTA agarose (5 mL). The resin was subsequently washed with wash buffer (30 mM Tris pH 7.5, 250 mM NaCl, 10 mM imidazole, 3% (v/v) glycerol, and 2 mM TCEP). The resin was incubated at 30° C. for 1 h with 1.4 mg ULP1 protease. The resin was then washed with an additional fraction of wash buffer. Centrifuge filtration was used to concentrate the protein, and the concentrated protein was subsequently applied to a 16/600 Superdex 200 size exclusion column with an isocratic elution of 25 mM HEPES, 25 mM Tris pH 7.4, 325 mM NaCl, 10 mM KCl and 3% (v/v) glycerol at a flow rate of […]. The fractions containing the protein were determined by SDS-PAGE, combined, and concentrated by centrifuge filtration. 3 mM TCEP was added to the concentrated protein, which was then aliquoted, flash frozen in liquid N2, and stored at −80° C.
This example is representative of the method described in Example D, ClbP was incubated with test compounds in an in vitro assay. In a typical assay, 0, 1, or 20 μM purified WT or S95A ClbP was incubated with 100 or 500 μM compound in reaction buffer (50 mM Tris-HCl pH 7.5, 37.5 mM NaCl) at room temperature for 24 h. The total volume of this reaction was 150 μL.
After 24 h, 2 volumes of acetonitrile (300 μL) were added to the reaction to quench the solution.
The reaction was centrifuged (4,000 g, 15 min), and then the supernatant was analyzed by LCMS. 5 μL of the supernatant was injected onto an Acquity UPLC BEH C18 1.7 μm 2.1×100 column. Buffer A was 0.1% (v/v) formic acid in water and buffer B was 0.1% (v/v) formic acid in acetonitrile. The flow rate was 0.5 mL/min. The initial % B was 10, which was held for 30 s then ramped up to 90% B over 3 min, held at 90% B for 1 min, ramped down to 10% B over 15 s, and then held at 10% B for 15 s. The UV-Vis spectrum from 210-400 nm was monitored with 3.6 nm resolution. Positive and negative mode ESI were monitored from 100-1000 m/z with a 20 V cone voltage at 5 Hz sampling frequency in centroid collection.
The relative starting material remaining in the WT ClbP reaction was determined by LCMS and then compared to the residual starting material in the no-enzyme and catalytically inert enzyme (S95A ClbP) reactions. In an ideal case, the amount of residual starting material in the WT ClbP reaction was <25% of the amount in the S95A ClbP and no-enzyme conditions. In an acceptable case, the amount of residual starting material in the WT ClbP reaction was 25-75% of the amount in the S95A ClbP and no-enzyme conditions. In a non-preferred case, the amount of residual starting material in the WT ClbP reaction was >75% of the amount in the S95A ClbP and no-enzyme conditions.
Formation of the anticipated product was likewise quantified by LCMS analysis and confirmed by coelution with an external product standard. In an ideal case, the amount of product formed in the WT ClbP reaction corresponded to >75% of the theoretical maximum. In an acceptable case, the amount of product formed in the WT ClbP reaction corresponded to 25-75% of the theoretical maximum. In a non-preferred case, the amount of product formed in the WT ClbP reaction corresponded to <25% of the theoretical maximum.

[2] = system: E. coli CFT073 ATCC 700928 and/or E. coli Nissle 1917; experiment: Cell-based assay with ClbP with LCMS, ClbP positive strain; conditions: for % Remaining in ClbP Positve Relative to Media-Only: ClbP-encoding E. coli, 10 μM compound, 37° C., 20 h
How it was run: (§1)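 Compound (10 μM final) incubated 20 h at 37° C, aerobically, with 1:40-diluted overnight cultures of ClbP-positive E. coli or negative BL21(DE3), in duplicate, alongside uninoculated LB. Remaining parent quantified by LC-MS/MS (MRM) after acetonitrile quench, expressed as percent of media-alone.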

E. coli BL21(DE3) = experiment: Cell-based assay with ClbP with LCMS, ClbP negative strain; conditions: 10 μM compound, 37° C., 20 h
How it was run: as §1

[3] = Stability of conjugates in Simulated Intestinal Fluid (SIF); format: in vitro ADME; conditions: simulated intestinal fluid pH 6.7 with pancreatin, 1 μM, 37° C.
Description: Assay 2. Stability of conjugates in Simulated Intestinal Fluid (SIF). This assay was used to assess the stability of a conjugate in a small intestine. Phosphate buffer was prepared by dissolving 0.42 g of sodium hydroxide pellets and 3.95 g of monobasic sodium phosphate monohydrate and 6.19 g of sodium chloride in ultrapure water (MilliQ®, Millipore Sigma, Darmstadt, Germany). The pH was adjusted to 6.7 using aq. HCl and aq. NaOH, as necessary, and the solution was diluted with ultrapure water to produce 1 L of the pH 6.7 buffer. 112 mg FaSSIF powder (Biorelevant™, London, UK) was dissolved in 50 mL of the pH 6.7 buffer. 2 to 3 mL of the resulting solution were then added to 500 mg pancreatin (Millipore Sigma, Darmstadt, Germany). The resulting mixture was agitated by finger tapping the vessel containing the mixture until milky suspension formed. At this time, the remainder of the 50 mL FaSSiF/pH 6.7 buffer solution was added. The resulting suspension was flipped upside down 10 times to produce SIF, which was used fresh. Test compounds were dissolved in DMSO stock to 1 mM. An aliquot of the DMSO stock solution was removed and diluted in the SIF media in 15 mL falcon tubes to produce a mixture with a tested compound concentration of 1 μM. A 1 mL aliquot was immediately removed and diluted once with 1 volume of acetonitrile for T0 timepoint. The mixture was sealed and agitated at 37° C. in an incubator. Aliquots (1 mL) were removed at regular intervals and immediately quenched by the addition of 1 volume of acetonitrile. The resulting samples were analyzed by LC/MS to determine degradation rates

[4] = Stability of conjugates in Simulated Gastric Fluid (SGF); format: in vitro ADME; conditions: simulated gastric fluid pH 1.6 with pepsin, 1 μM, 37° C.
Description: Assay 1. Stability of conjugates in Simulated Gastric Fluid (SGF). This assay was used to assess the stability of a conjugate in a stomach. Medium was prepared by dissolving 2 g of sodium chloride in 0.6 L in ultrapure water (MilliQ®, Millipore Sigma, Darmstadt, Germany). The pH was adjusted to 1.6 with 1N hydrochloric acid, and the volume was then adjusted to 1 L with purified water. 60 mg FaSSIF powder (Biorelevant™, London, UK) were dissolved in 500 mL buffer (above). Pepsin was added (0.1 mg/mL) (Millipore Sigma, Darmstadt, Germany), and the solution was stirred. The resulting SGF media were used fresh for each experiment. Test compounds were dissolved in DMSO stock to 1 mM. An aliquot of the DMSO stock solution was removed and diluted in the SGF Media in 15 mL falcon tubes to generate a total compound concentration of 1 μM. A 1 mL aliquot was immediately removed and diluted once with 1 volume of acetonitrile for T0 timepoint. The mixture was sealed and mixed at 37° C. in an incubator. Aliquots (1 mL) were removed at regular intervals and immediately quenched by the addition of 1 volume of acetonitrile. The resulting samples were analyzed by LC/MS to determine degradation rates in SGF.

Compound | Assay 3 (% Remaining at 24 h) [1] | % Remaining in ClbP Positve Relative to Media-Only [2] | % Remaining in ClbP Negative Relative to Media-Only (E. coli BL21(DE3)) | further results
CCCCCCCC(=O)N[C@H](CC(N)=O)C(=O)NCCNC [(R)—N1-(2-(methylamino)ethyl)-2-octanamidosuccinamide, reference compound] | – | – | – | Bacteria-free media (Luminescence, average of three runs) (CT26.CL25 cells; 0.01 µM): 278313
CCCCCCCC(=O)N[C@H](CC(=O)O)C(=O)N[C@@H](C)C(=O)OC [Example 8, (R)-4-(((S)-1-methoxy-1-oxopropan-2-yl)amino)-3-octanamido-4-oxobutanoic acid] (Octanoyl-[dD]-Ala-OMe) | B (25-75% of the tested compound remaining) | − (>75% compound remaining in the 20 μM WT ClbP reaction relative to the no-enzyme control) | + (between 25-75% compound remaining in the 20 μM WT ClbP reaction relative to the no-enzyme control) | Status (compound remaining in WT ClbP reaction relative to no-enzyme control) (WT ClbP; 500 μM compound): − (>75% compound remaining in the 20 μM WT ClbP reaction relative to the no-enzyme control)
COC(=O)[C@H](C)NC(=O)[C@@H](CC(N)=O)NC(=O)c1ccccc1 [Example 13, Methyl benzoyl-D-asparaginyl-L-alaninate] (Bz-[dN]-Ala-OMe) | C (>75% of the tested compound remaining) | ++ (<25% compound remaining in the 20 μM WT ClbP reaction relative to the control) | + (between 25-75% compound remaining in the 20 μM WT ClbP reaction relative to the no-enzyme control) | Status (compound remaining in WT ClbP reaction relative to no-enzyme control) (WT ClbP; 100 μM compound): ++ (<25% compound remaining in the 20 μM WT ClbP reaction relative to the control); Difference between the ClbP Positive and ClbP Negative release profiles ([2]; conclusion from Table 4): particularly favorable difference
CCCCCCCCCCCCCC(=O)N[C@H](CC(N)=O)C(=O)N[C@@H](C)CCC(=O)Oc1ccccc1 [Example 66, phenyl (S)-4-((R)-4-amino-4-oxo-2-tetradecanamidobutanamido)pentanoate] | A (<25% of the tested compound remaining) | + (between 25-75% compound remaining in the 20 μM WT ClbP reaction relative to the no-enzyme control) | ++ (<25% compound remaining in the 20 μM WT ClbP reaction relative to the control) | Assay 2 (SIF) (% @ Remaining 4 hours) [3]: B (25-75% of the tested compound remaining); Selective delivery to the colon (conclusion from Table 2) ([1]; from SGF, SIF and colonic material stability): can be selectively delivered to the colon; Assay 1 (SGF) (% Remaining @ 1 hours) [4]: C (>75% of the tested compound remaining)
CCc1c2c(nc3ccc(O)cc13)-c1cc3c(c(=O)n1C2)COC(=O)[C@]3(O)CC [SN-38, 7-ethyl-10-hydroxy-camptothecin, reference compound] | – | – | – | Bacteria-free media (Luminescence, average of three runs) (CT26.CL25 cells; 10 nM compound, CT26.CL25 cells, CellTiter-Glo): 121387

From US11998610B2, “Conjugates and methods of using the same” (Flagship Pioneering Innovations V, Inc., priority 2018, dated 2024)
